# Results from patent US8715745B2 (priority 2009, dated 2014).
# How the values were obtained:
# Phytophthora infestans = type: in vivo, Phytophthora infestans on tomato plant; details: 50 ppm hydrazone with 50 μM CuCl2.2H2O, applied 24 h before inoculation, assessed 7 days after inoculation, tomato
# [1] = test system: Leptosphaeria nodorum (LEPTNO); test: In vitro fungitoxicity (growth inhibition) against Leptosphaeria nodorum in copper-minus and copper-plus medium; type: cell-based; details: 0.05 μg/mL, 72 h
# Protocol: In vitro fungitoxicity assays against Leptosphaeria nodorum (LEPTNO) were conducted using the liquid growth medium described by Coursen and Sisler (American Journal of Botany 1960, 47, 541-549) except that copper micronutrient, normally included as CuSO4, was omitted. The medium, termed “copper-minus”, was prepared by dissolving 10 g glucose, 1.5 g K2HPO4, 2 g KH2PO4 and 1 g (NH4)2SO4 in 1 liter of deionized water and treating the solution with 0.5 g Chelex 100 resin (Bio-Rad Analytical grade, 50-100 mesh, sodium form, cat#142-2822) by stirring at room temperature for 1 h. MgSO4.7H2O (0.5 g) was added, and stirring was continued for a further hour. Trace elements (minus CuSO4), and vitamins described by Coursen and Sisler were added from concentrated stock solutions and the entire medium was sterilized by filtration. Medium containing copper was prepared by adding CuCl2.2H2O to the copper-minus medium at 20 μM. […]
# LEPTNO was grown on potato dextrose agar in 9 cm diameter petri dishes for 7 days. […] Microtiter plates were inoculated with 100 μL of this spore suspension and the plates incubated at 25° C. for 72 h before assessing fungal growth by measuring light scattering in a NepheloStar plate reader. Growth inhibition was determined by comparing growth in the presence of test compound with growth in control wells lacking test compound. […]
# Ustilago maydis = test: In vitro fungitoxicity (growth inhibition) against Ustilago maydis in copper-minus and copper-plus medium; type: cell-based; details: for % Inhn. Plus copper Predicted: 1 μg/mL, Colby formula
# Protocol: In vitro fungitoxicity assays against Ustilago maydis were conducted using the copper-minus medium described in Example 5. Medium containing copper was prepared by adding CuCl2.2H2O to the copper-minus medium at 20 μM. Test compounds were dissolved in dimethylsulfoxide (DMSO) at 200 μg/mL and 1 μL aliquots were added to two wells of flat-bottomed 96-well microtiter plates. Copper-minus medium (100 μL) was added to one of the wells and copper-plus medium to the second well. Control wells, included for each medium, received 1 uL DMSO and 100 μL of medium.
# Ustilago maydis was grown in 50 mL potato dextrose broth with shaking at 25° C. for 24 h. A 10 mL aliquot of the culture was centrifuged at 2000 rpm for 2 min, resuspended in 10 mL of sterile Chelex 100-treated water, and centrifuged again. The spores were resuspended in copper-minus medium, and the suspension adjusted to a concentration of 1×10^5 spores per mL. Microtiter plate wells containing test compound of DMSO (control) as described above were inoculated with 100 μL of this spore suspension and the plates incubated at 25° C. for 48 h before assessing fungal growth by measuring light scattering in a NepheloStar plate reader. Growth inhibition was determined by comparing growth in the presence of test compound with growth in control wells lacking test compound.
# Results for growth inhibition by test compounds at 1 μg/mL in copper-plus medium (“% Inhn Plus Copper Observed”) were compared with predicted results (“% Inhn Plus Copper Predicted”) that were calculated using the formula set forth by S. R. Colby in Weeds 1967, 15, 20-22 based on results obtained for the same compounds in copper-minus medium (“% Inhn Minus Copper Observed”) and the inhibition attributed to copper chloride alone, as determined by comparing growth in copper-minus and copper-plus media without any test compound. Results illustrate that hydrazones and copper produce a synergistic fungitoxic effect towards Ustilago maydis.
# Phytophthora capsici = test: In vitro fungitoxicity (growth inhibition) against Phytophthora capsici in copper-minus AS and copper-plus AS medium; type: cell-based; details: for % Inhn Plus copper Predicted: 0.050 μg/mL, Colby formula
# Protocol: In vitro fungitoxicity assays against Phytophthora capsici were conducted using the asparagine-sucrose (AS) medium described in Canadian Journal of Microbiology 1961, 7, 15-25, except that copper micronutrient, normally included as CuSO4, was omitted. The medium, termed “copper-minus AS”, was prepared by dissolving 2 g asparagine, 0.43 g KH2PO4, 0.3 g K2HPO4, 0.4 mL of a 0.5 mg/mL thiamine-HCl solution and 15 g sucrose in 1 liter of deionized water and treating the solution with 0.5 g Chelex 100 resin (Bio-Rad Analytical grade, 50-100 mesh, sodium form, cat#142-2822) by stirring at room temperature for 1 h. The pH was adjusted to 6.4, then MgSO4.7H2O (100 μg/mL), FeSO4.7H2O (1 μg/mL), CaCl2 (50 μg/mL), ZnSO4.7H2O (1 μg/mL), NaMoO4.2H2O (0.2 μg/mL) and MnCl2.4H2O (0.2 μg/mL) were added and the entire medium was sterilized by filtration. “Copper-plus AS” medium was prepared by adding CuCl2.2H2O to the copper-minus AS medium at 100 μM. Test compounds were dissolved in DMSO then dilutions in copper-minus AS and copper-plus AS media were prepared as 100 μL aliquots in flat-bottomed 96-well microtiter plates.
# Phytophthora capsici was grown on petri plates, 9 cm in diameter, containing 15 mL V-8 agar, pH 7.0, containing 200 mL V-8 juice, 4 g CaCO3, and 20 g agar per liter. Plates were inoculated with 7-mm plugs from a 1-week old culture, incubated at 25° C. in the dark for 3 days, and then placed under fluorescent lights for 4 days to induce sporulation. Zoospore release from sporangia was induced by adding 15 mL of sterile deionized water (which had been treated with Chelex 100 resin using 0.5 g resin per liter of water by stirring at room temperature for 1 h) to each plate, and incubating for 10 min at 25° C. followed by 20 min at 4° C. The plates were returned to 25° C. for 10 min and the aqueous suspension of released zoospores was recovered. The zoospore suspension was adjusted to 5×10^4 spores/mL by dilution into Chelex 100-treated water. Microtiter plates were inoculated with 100 μL of spore suspension and incubated at 25° C. for 48 h before assessing fungal growth by measuring light scattering in a NepheloStar plate reader. Growth inhibition was determined by comparing growth in the presence of test compound with growth in control wells lacking test compound.
# Results for growth inhibition by test compounds in copper-plus AS medium (“% Inhn Plus Copper Observed”) were compared with predicted values (“% Inhn Plus Copper Predicted”) that were calculated using the formula set forth by S. R. Colby in Weeds (1967), 15, 20-22 based on results obtained for the same compounds in copper-minus AS medium (“% Inhn Minus Copper Observed”) and the inhibition attributed to copper chloride alone, as determined by comparing growth in copper-minus AS and copper-plus AS media without any test compound across experiments. Results illustrate that hydrazones and copper produce a synergistic fungitoxic effect towards Phytophthora capsici.
# [2] = test system: Septoria tritici isolate USA-184; test: In vitro fungitoxicity (growth inhibition) against Septoria tritici in copper-minus and copper-plus medium; type: cell-based; details: CuCl2 1 μM without test compound
# Protocol: In vitro fungitoxicity assays against Septoria tritici were conducted using the copper-minus medium described in Example 5. Medium containing copper was prepared by adding CuCl2.2H2O to the copper-minus medium at 2 μM. Test compounds were dissolved in dimethylsulfoxide (DMSO) at 10 μg/mL and 1 μL aliquots were added to two wells of flat-bottomed 96-well microtiter plates. Copper-minus medium (100 μL) was added to one of the wells and copper-plus medium to the second well. Control wells, included for each medium, received 1 uL DMSO and 100 μL of medium.
# Septoria tritici isolate USA-184 was grown on potato dextrose agar at 18° C. under black lights for 3 days. A loopful of spores was transferred from the culture to a 15 mL tube containing 5 mL of sterile Chelex-treated water. The spores were centrifuged at 2000 rpm for 2 min, resuspended in 10 mL water, and centrifuged again. […] Microtiter plate wells containing test compound of DMSO (control) as described above were inoculated with 100 μL of this spore suspension and the plates incubated at 25° C. for 90 h before assessing fungal growth by measuring light scattering in a NepheloStar plate reader. Growth inhibition was determined by comparing growth in the presence of test compound with growth in control wells lacking test compound. […]
# [3] = test system: Staphylococcus aureus, Escherichia coli, Aspergillus niger and A. flavus; details: literature report, Proceedings of the National Academy of Sciences, India 1991; cited from earlier work
smiles,measurement,setting,value
O=C(N/N=C/c1cc(Cl)c(Cl)cc1O)c1ccccc1 [Compound 5],TLB % Control,Phytophthora infestans,66.1%
same,melting point,,206 to 208 °C
same,LEPTNO % Inhn. Plus Copper Observed,"[1]; copper-plus medium (CuCl2, 10 μM)",97.8%
same,inhibition of growth at 0.05 µg/mL,"[1]; Parastagonospora nodorum, copper-minus medium, read-out: LEPTNO % Inhn. Minus Copper Observed",0.1%
Cc1ccc(C(=O)N/N=C/c2ccc(Cl)c(Cl)c2O)c(O)c1 [Compound 20],% Inhn. Plus copper Predicted,Ustilago maydis,69.6%
same,% Inhn Plus copper Predicted,Phytophthora capsici,4.5%
O=C(N/N=C/c1c(Cl)ccc(Cl)c1O)c1cccc(Cl)c1 [Compound 25],% Inhn. Plus copper Predicted,Ustilago maydis,14.7%
same,% Inhn Plus copper Predicted,Phytophthora capsici,4.5%
O=C(N/N=C/c1c(O)cccc1Cl)c1ccc([N+](=O)[O-])cc1 [Compound 50],% Inhn. Plus copper Predicted,Ustilago maydis,20.4%
same,% Inhn Plus copper Predicted,Phytophthora capsici,5.1%
O=C(N/N=C/c1cccc(Cl)c1O)c1cccc(Cl)c1 [Compound 58],% Inhn. Plus copper Predicted,Ustilago maydis,42.1%
same,% Inhn Plus copper Predicted,Phytophthora capsici,13.2%
"O.O.[Cl][Cu][Cl] [CuCl2, CuCl2.2H2O, reference compound]","% Inhibition, copper chloride alone",[2],0%
same,"% Inhibition, copper chloride alone",[2]; listed as copper chloride,no effect on growth
same,"% Inhn., copper chloride alone",Ustilago maydis; CuCl2 10 μM without test compound,11.9%
same,"% Inhn, copper chloride alone","Phytophthora capsici; CuCl2 50 uM without test compound, across experiments",4.5 ± 7.9%
O=C(NN=Cc1ccccc1O)c1ccccc1O [o-hydroxybenzaldehyde-N-salicyloylhydrazone],antimicrobial activity,[3],Antimicrobial activity has been reported
